Measured values reported in US10363261B2, “Enolase inhibitors and methods of treatment therewith” (Board of Regents, The University of Texas System, priority 2015, dated 2019).
“Also recorded” adds a separate entry of the source. Read-outs that look alike come from different tables or passages of the source.

What was measured:
ENO2 = ENO2 (Homo sapiens, UniProt P09104); assay: Enolase enzymatic activity and Michaelis-Menten kinetic analysis, ENO2; conditions: for inhibition kinetics with respect to substrate 2-PGA: SF2312: at IC50
ENO2, sequence (P09104 whole entry): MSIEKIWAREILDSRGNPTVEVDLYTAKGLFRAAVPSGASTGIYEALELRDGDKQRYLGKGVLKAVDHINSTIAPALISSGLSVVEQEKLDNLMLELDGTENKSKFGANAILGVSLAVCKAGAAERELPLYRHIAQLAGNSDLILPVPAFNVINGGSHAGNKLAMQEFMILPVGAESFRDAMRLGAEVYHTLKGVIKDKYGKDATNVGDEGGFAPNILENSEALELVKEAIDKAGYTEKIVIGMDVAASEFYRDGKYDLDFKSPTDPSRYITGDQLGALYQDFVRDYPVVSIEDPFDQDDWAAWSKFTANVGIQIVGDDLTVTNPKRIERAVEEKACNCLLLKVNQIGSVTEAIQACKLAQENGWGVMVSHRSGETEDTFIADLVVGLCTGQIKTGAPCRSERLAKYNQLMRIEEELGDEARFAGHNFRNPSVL
Procedure: Human ENO1 and ENO2 were overexpressed in the human D423 cell line and used for enzymatic assays. […] Enzymatic activity was measured by monitoring fluorescence of NADH at 340 nm Exitation/460 nm emission using an Lactate dehydrogenase/Pyruvate kinase linked assay which links the formation of PEP to the oxidation of NADH to NAD+, as we have described in published work (Muller et al., 2012). Enzymatic activity was normalized to that in the absence of the inhibitor (set to 1) and plotted as function of inhibitor concentration.
The Michaelis-Menten Kinetic analysis was performed using standard methods in the field such as those taught by Voet and Voet, 2011. The enzymatic activity of Enolase 1 or 2 v was determine over a concentration range of 10 mM to 0.5 mM 2-PG [S], in the presence of increasing concentrations of inhibitor [I].
Native lysates of mouse tissues and human cell lines were prepared using 20 mM Tris HCl, 1 mM EDTA, and 1 mM β-mercaptoethanol at pH 7.4 and homogenized using a Polytron homogenizer three times for a period of 10 s followed by sonication, after which the lysates were cleared by centrifugation at 20,000 g for 10 minutes. Enolase activity was measured using two different methods, either by a fluorometric NADH-linked assay or a direct spectrophotometric assay via formation of PEP. In the fluorescent assay, enolase activity was measured via NADH oxidation in a pyruvate kinase-lactate dehydrogenase coupled assay as previously described (Muller, et al., 2012). The assay is conducted in 10 mM KCl, 5 mM MgSO4, 100 mM triethanolamine at pH 7.4, with 400 μM NADH and 2 mM ADP. 2-Phosphoglycerate (2-PGA), pyruvate kinase (PK) and lactate dehydrogenase (LDH) are provided in excess, with conversion of 2-PGA to PEP by enolase being rate limiting. PEP (with ADP) is substrate of PK; pyruvate formed by this reaction is linked to NADH oxidation by LDH. Enolase activity is determined by measuring oxidation of NADH fluorescently by excitation at 340 nm and emission at 460 nm. The substrate concentration, if not otherwise indicated, was 5 mM 2-PGA. Fluorescence was measured using Omega Fluorescence Plate Reader (BMG Labtech). Alternatively, Enolase activity was measured directly by the appearance of PEP from 2-PGA via absorption at 240 nm (Marangos, et al., 1978). The assay medium was the same, except that all the auxiliary reagents (PK/LDH, NADH, ADP) are omitted. Both assays were conducted in a 96-well plated format with the direct assay performed in UV-transmissible plates.

human ENO1 = human ENO1 (Homo sapiens, UniProt P06733); assay: Enolase enzymatic activity, NADH-linked pyruvate kinase/lactate dehydrogenase fluorescence assay, ENO1
human ENO1, sequence (P06733 whole entry): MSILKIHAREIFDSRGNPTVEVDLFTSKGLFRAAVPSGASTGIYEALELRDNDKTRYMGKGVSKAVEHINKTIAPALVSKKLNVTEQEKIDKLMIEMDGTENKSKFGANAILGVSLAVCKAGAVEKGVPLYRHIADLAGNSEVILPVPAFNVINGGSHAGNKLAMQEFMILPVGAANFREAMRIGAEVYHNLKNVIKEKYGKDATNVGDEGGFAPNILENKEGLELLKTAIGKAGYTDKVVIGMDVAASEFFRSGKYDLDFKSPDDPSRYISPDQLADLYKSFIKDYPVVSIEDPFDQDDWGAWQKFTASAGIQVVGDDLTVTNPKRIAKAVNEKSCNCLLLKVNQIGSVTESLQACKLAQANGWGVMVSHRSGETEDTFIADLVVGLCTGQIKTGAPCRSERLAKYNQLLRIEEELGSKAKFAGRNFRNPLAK
Procedure: (§4) Human ENO1 and ENO2 were overexpressed in the human D423 cell line and used for enzymatic assays. Inhibitors (PhAH, SF2312 and Deoxy-SF2312, Hex, Hepta, Pom-Hex, and Fosmidomycin) were incubated with the enzyme prior to addition of 5 mM 2-PG substrate. Enzymatic activity was measured by monitoring fluorescence of NADH at 340 nm Exitation/460 nm emission using an Lactate dehydrogenase/Pyruvate kinase linked assay which links the formation of PEP to the oxidation of NADH to NAD+, as we have described in published work (Muller et al., 2012). Enzymatic activity was normalized to that in the absence of the inhibitor (set to 1) and plotted as function of inhibitor concentration.
(§5) Enolase activity was measured using two different methods, either by a fluorometric NADH-linked assay or a direct spectrophotometric assay via formation of PEP. In the fluorescent assay, enolase activity was measured via NADH oxidation in a pyruvate kinase-lactate dehydrogenase coupled assay as previously described (Muller, et al., 2012). The assay is conducted in 10 mM KCl, 5 mM MgSO4, 100 mM triethanolamine at pH 7.4, with 400 μM NADH and 2 mM ADP. 2-Phosphoglycerate (2-PGA), pyruvate kinase (PK) and lactate dehydrogenase (LDH) are provided in excess, with conversion of 2-PGA to PEP by enolase being rate limiting. PEP (with ADP) is substrate of PK; pyruvate formed by this reaction is linked to NADH oxidation by LDH. Enolase activity is determined by measuring oxidation of NADH fluorescently by excitation at 340 nm and emission at 460 nm. The substrate concentration, if not otherwise indicated, was 5 mM 2-PGA. Fluorescence was measured using Omega Fluorescence Plate Reader (BMG Labtech). Alternatively, Enolase activity was measured directly by the appearance of PEP from 2-PGA via absorption at 240 nm (Marangos, et al., 1978). The assay medium was the same, except that all the auxiliary reagents (PK/LDH, NADH, ADP) are omitted. Both assays were conducted in a 96-well plated format with the direct assay performed in UV-transmissible plates.

[1] = test system: ENO1 null glioma cells (D423-MG); assay: Growth inhibition by live imaging (Incucyte) / crystal violet; format: cell-based, human; conditions: for IC50: Homo sapiens, D-423MG, 72 h, confluence over 3 days, read-out: approximate IC50 for growth inhibition of ENO1 null glioma cells
Procedure: (§1) Cell proliferation of glioma cell lines was assayed either through crystal violet staining or by live-cell confluence measurements with the IncuCyte (Essen BioScience). Growth curves using the IncuCyte were generated by confluence imaging every 4 hours with duplicate replicates with an initial seeding of 1500 cells/well in 96-well plates. At the indicated time point, cells were fixed with 10% formalin and stained with crystal violet. Dye extraction was performed using 10% acetic acid solution, and absorbance was read at 595 nm. Apoptotic cells were counted by staining with YO-PRO®-1 Iodide (491/509, Life Technologies, Y3603). Apoptotic cells become permeable to YO-PRO®-1 while live cells are not stained. Alternatively, Propidium Iodide was employed (Life Technologies) instead of YO-PRO. Total cell number was quantified by Hoechst 33342 (Cat# H3570 Invitrogen). Cells were seeded as 2×10^3 cells/well in 96-well plates and treated in the presence or absence of doxycycline. On the day of apoptosis survey, old media was removed and each well was filled to 100 μl with fresh media. Hoechst and YO-PRO®-1 were mixed in 1:100 PBS and 10 μl of the mixture was added in each well gently without touching the cells for a final dilution of 1:1000 from stock. Plates were then incubated at 37° C. for 2 hours. Image capture and quantification was done by High Content Screening System—Operetta (Perkin Elmer). ATP content was measured with the luciferase/luciferin CellTiter-Glo® assay. Briefly, 100 μl of CellTiter-Glo® assay media was added to 96-well plates containing 100 μl of media and cells. Lysis was achieved by the […] in the buffer and vigorous pipetting, and luminescence was determined using an Omega Luminescence Plate Reader (BMG Labtech). Results were expressed relative to vehicle treated control.
(§2) The inhibitor effects were followed live-cell confluence measurements with the IncuCyte (Essen BioScience) as we described previously (Muller et al., 2012). Growth curves using the IncuCyte were generated by confluence imaging every 2 hours with quadruplicate replicates with and initial seeding of 10^3 cells/well in 96-well plates.
(§3) At the indicated time point (usually 2 weeks), cells were fixed with 10% formalin and stained with 0.1% crystal violet solution for 1 h as described previously (Muller et al., 2012). Dye extraction was performed using 10% acetic acid solution, and absorbance was read at 595 nm.

enolase (ENO1 and ENO2) = assay: Enolase inhibitory activity in vitro, isoform not distinguished (ENO1 and ENO2); format: biochemical, human
Procedure: as §4, §5

[2] = Stability in cell culture media by proton-decoupled 31P NMR
Procedure: (§6) The stability of Pom-SF2312 in cell culture media (DMEM with 10% fetal bovine serum) was measured by proton-decoupled ^31P NMR on a Brucker 500 MHZ at the M. D. Anderson NMR core (FIG. 14).
(§7) 1.5 mM Pom-Hex and 1.5 mM Pom-SF2312 were dissolved in standard cell culture media (DMEM media containing 10% FBS with the addition of 10% D2O for locking of the NMR signal). Proton-decoupled ^31P NMR scans were taken at repeated intervals. The experiment was performed at room temperature.

[3] = Hematocrit / hemolytic anemia after IV administration; conditions: for hematocrit after treatment (drop from 45%): 100 mg/kg IV for longer than a week; for dose at which mild hemolytic anemia can be observed: as low as
Excerpt: Erythrocytes are sensitive to disruptions in the glycolytic cycle as glycolysis is the cell's only source of energy in the form of ATP.

[4] = test system: ENO1 deleted glioma cells in neurospheres; assay: Cell viability in 3 dimensional neurosphere conditions (tetramethylrhodamine); format: cell-based, human
Procedure: The cellular viability studies of 3-dimensional tumospheres was performed by using the vital dye, tetramethylrhomdamine ethyl ester (TMRE). […] For reference, a brightfield picture was also taken.
To more accurately model tumors, glioma cells were grown in 3 dimensional neurosphere conditions. The surface to volume ratio of the neurosphere was considerably smaller than in convention cell culture conditions and as such, compounds with poor cell penetration such as phosphonates have considerably lower efficacy than in conventional cell culture. […] However, under the same conditions, the cell permeable pro-drug, Pom-Hex, was highly toxic to ENO1 deleted glioma cells (FIG. 10B). Cell viability in spheres was monitored using 100 nM of tetramethylrhodamine, which is actively taken up by live but not dead cells.

[5] = test system: conversion of 13C-glucose to 13C-lactate in D423 ENO1-deleted glioma cells; assay: 13C-NMR tracing of uniformly labeled 13C-glucose to 13C-lactate; conditions: 48 hours, 10 mM 13C-uniformly labeled glucose
Procedure: Glucose labeled with heavy, non-radioactive, ^13C at carbon C-1 and ^13C at all carbon atoms were purchased from Cambridge Isotopes (CLM-420-1 and CLM-1396, respectively). Glucose free DMEM media was supplemented with 10 mM ^13C-1 or ^13C-all labeled Glucose. NMR metabolic tracing was performed by substituting conventional DMEM medium with glucose free DMEM medium, to which ^13C-1 glucose (Cambridge Isotopes) was supplemented at 10 mM. […] After 4 days, conditioned media was extracted with 80% methanol at −80° C., lyophilized and resuspended in D2O. Proton-decoupled ^13C NMR spectra were acquired using a 500 MHZ Bruker instrument in the M. D. Anderson NMR core facility.

[6] = test system: ATP levels in D423 ENO1-deleted glioma cells; assay: ATP content (CellTiter-Glo); format: cell-based, human; conditions: 8 hours of treatment
Procedure: as §1

[7] = test system: VHL deleted kidney cancer cell lines RCC4 and 786-O; assay: Live growth imaging (Incucyte) of VHL deleted vs VHL rescued kidney cancer cells; format: cell-based, human
Procedure: as §2
VHL is a common event in renal clear cell carcinoma. Deletion of VHL activates the HIF pathway, suppressing respiration and rendering cancer cells highly dependent on glycolysis. As such, efforts have been made to target glycolysis to achieve selective toxicity to VHL deficient kidney cancer. As such, the enolase inhibitor Pom-Hex was tested in VHL deteted kidney cancer cell lines. In two independent VHL deleted kidney cancer cell lines, RCC4 (bottom) and 786-O (top panel), the enolase inhibitor, Pom-Hex, was 4-8 times more toxic to the VHL deleted (upper), compared to isogenic rescued controls, expressing VHL from an ectopic locus (lower panels, italics). As in FIG. 12, growth in response to increasing doses of Pom-Hex was measured by live growth imaging using the Incucyte.

[8] = test system: ENO1 deleted Glioblastoma cell line, Gli56; assay: Intracranial Gli56 glioblastoma tumors tracked by T2 MRI; format: in vivo, NUDE immunocompromised mice; conditions: Pom-SF2312 at 4 MPK
Excerpt: Animals (NUDE immunocompromised mice) injected intracranially with the ENO1 deleted Glioblastoma cell line, Gli56. After 30 days, tumors became readily visible by MRI (T2, the white hyperintense regions are tumor on the background grey of the normal brain). In the absence of treatment, Gli56 tumors grow continuously (Mouse #1, and Mouse #3, from Day 30 to Day 40). […] The tumors have not recurred after discontinuation of treatment.

normal human astrocytes = assay: Sensitivity under conventional growth conditions, normal cells; format: cell-based
Procedure: as §2, §3

[9] = test system: cell lines heterozygously deleted for ENO1; assay: Sensitivity under conventional growth conditions, ENO1 heterozygous lines; format: cell-based, human
Procedure: as §2, §3

[10] = test system: D423-MG glioma cells (1p36 deletion spanning ENO1); assay: Intracranial D423-MG glioma tumors tracked by T2 MRI; format: in vivo, Nude mice; conditions: 10 mg/kg intravenous for 11 days
Procedure: Nude mice were injected with D423-MG glioma cells which carry the 1p36 deletion spanning ENO1. Tumors formed around 30 days post injection and growth was tracked non-invasively by T2 MRI. In the absence of treatment, tumors grew continuously, ultimately killing the animal. The tumor area (right side of the brain) is distinguished from the normal mouse brain by high contrast. MRI measurements were performed in a 4.7 T Biospec USR47/40 (Bruker Biospin MRI, Billerica, Mass.) at the M. D. Anderson small animal imaging facility (SAIF). Briefly, animals were maintained under deep anesthesia with isoflurane with body temperature maintained by a heating blanket. Anesthetized mice were restrained with the head held in a stereotactic holder. Breathing was monitored and synchronized with the instrument. Routine tumor detection was done by T2-weighed imaging. First, a low resolution axial scan is taken to center the field properly, after which a series of high resolution axial and coronal scans are recorded.
Nude mice were injected with D423-MG glioma cells which carry the 1p36 deletion spanning ENO1. Tumors formed around 30 days post injection and growth was tracked non-invasively by T2 MRI. In the absence of treatment, tumors grew continuously, ultimately killing the animal. The tumor area (right side of the brain) was distinguished from the normal mouse brain by high contrast. […]

Maximum tolerated dose = assay: Maximum tolerated dose; set-up: species or system NUDE immunocompromised mice; conditions: mouse, in vivo
[11] = up to 10 mM, lysates of D423 ENO1 and ENO2 expressing cells

Procedure for physchem: as §6, §7

O=C1C(P(=O)(O)O)CCN1O (stereo not shown) [Deoxy-SF2312]
IC50 (ENO2): ~2000 nM
inhibition kinetics with respect to substrate 2-PGA (ENO2): clear competitive kinetics
IC50 (human ENO1): ~2000 nM

CC(=O)OC1CC(P(=O)(OCOC(=O)C(C)(C)C)OCOC(=O)C(C)(C)C)C(=O)N1OC(C)=O (stereo not shown) [Diacetyl-POM-SF2312, (((1,5-diacetoxy-2-oxopyrrolidin-3-yl)phosphoryl)bis(oxy))bis(methylene) bis(2,2-dimethylpropanoate)]
IC50 [1]: ~150 nM

O=C(O)P(=O)(O)O [Foscarnet]
enolase inhibitory activity (enolase (ENO1 and ENO2); [11]): no enolase inhibitory activity
enolase inhibitory activity (enolase (ENO1 and ENO2); up to 10 mM, lysates of D423 ENO1 and ENO2 expressing cells, listed as foscanet): no inhibitory activity was observed

C[C@@H]1O[C@@H]1P(=O)(O)O [Fosfomycin]
enolase inhibitory activity (enolase (ENO1 and ENO2); [11]): no enolase inhibitory activity
enolase inhibitory activity (enolase (ENO1 and ENO2); up to 10 mM, lysates of D423 ENO1 and ENO2 expressing cells, listed as fosfomycin): no inhibitory activity was observed

O=CN(O)CCCP(=O)(O)O [Fosmidomycin]
enolase inhibitory activity (enolase (ENO1 and ENO2); even concentrations of >10,000,000 nM): completely inactive
enolase inhibitory activity (enolase (ENO1 and ENO2); [11]): no enolase inhibitory activity; also recorded: no inhibitory activity was observed

CC(C)(C)C(=O)OCOP(=O)(O)C1CC(O)N(O)C1=O (stereo not shown) [Hemi-Pom-SF2312]
hydrolysis to SF2312 in media ([2]; within 24 hours): did not appreciably hydrolyze

O=C1C(P(=O)(O)O)CCCN1O (stereo not shown) [Hex]
hematocrit after treatment (drop from 45%) [3]: 29%
dose at which mild hemolytic anemia can be observed [3]: 50 mg/kg
potency against ENO2 versus ENO1 (IC50 lower / activity greater for ENO2) (ENO2; ENO2 over ENO1): approximately 6 fold
Ki for ENO2 compared with ENO1 (ENO2; Lineweaver-Burke / Dixon plots): considerably lower Ki for ENO2 than ENO1
inhibition kinetics with respect to substrate 2-PGA (ENO2): competitive inhibitor
toxicity to ENO1 deleted glioma cells in neurosphere conditions [4]: only mildly sensitive

O=C(CP(=O)(O)O)NO [PhAH, phosphonoacetohydroxamate]
hematocrit after treatment (drop from 45%) [3]: 29%
dose at which mild hemolytic anemia can be observed [3]: 50 mg/kg
IC50 (ENO2): ~20 nM
concentration sufficient to decrease the ratio of 13C Lactate/13C glucose by 70% [5]: 50 µM
concentration reducing ATP levels by >40% [6]: > 100 µM
IC50 (human ENO1): ~20 nM

CC(C)(C)C(=O)OCOP(=O)(OCOC(=O)C(C)(C)C)C1CCCN(O)C1=O (stereo not shown) [Pom-Hex]
further hydrolysis to the free phosphonate (SF2312, Hex) ([2]; 72 hours of incubation): did not proceed further
time for half of the compound to hydrolyze in media ([2]; DMEM with 10% fetal bovine serum): more than 24 hours
times more toxic to VHL deleted compared to isogenic rescued controls [7]: 4-8 times
effect on hematocrit ([3]; doses as high as 10 mg/kg IV for up to 1 month): do not cause a statistically significant drop in hematocrit
effect on Gli56 intracranial tumor growth [8]: profound tumor regression
sensitivity of normal human astrocytes (normal human astrocytes): highly resistant
toxicity to ENO1 deleted glioma cells in neurosphere conditions [4]: highly toxic
fold more potent than Hex ([4]; FIGS. 10A & 10B, ENO1-deleted glioma cells): ≥ 200 fold
half-life at 1.5 mM (physchem): 2160 min
sensitivity of cell lines heterozygously deleted for ENO1 [9]: intermediate sensitivity
IC50 (enolase (ENO1 and ENO2); against ENO1 and ENO2, incubated prior to 5 mM 2-PG, contaminant Hex not ruled out): ~100 µM
IC50 [1]: ~35 nM
sensitivity of ENO1 deleted D423 glioma cells ([1]; conventional growth conditions): sensitive to even low nM levels of the inhibitor
effect on D423-MG intracranial tumor [10]: completely eradicated the tumor

CC(C)(C)C(=O)OCOP(=O)(OCOC(=O)C(C)(C)C)C1CC(O)N(O)C1=O (stereo not shown) [Pom-SF2312, (((1,5-dihydroxy-2-oxopyrrolidin-3-yl)phosphoryl)bis(oxy))bis(methylene)bis(2,2-dimethylpropanoate)]
maximum tolerated dose (Maximum tolerated dose): 4 MPK (mg/kg)
half-life at 1.5 mM (physchem; cell culture media): 480 min
IC50 [1]: < 75 nM
